Test results taken from US20240025919A1, “AZA-TETRACYCLIC OXAZEPINE COMPOUNDS AND USES THEREOF” (Genentech, Inc., priority 2022, published 2024).

Legend:
[1] = target: KRAS G12D (Homo sapiens (Human), UniProt P01116, G12D); test: KRAS G12D LoEnz Biochemical Assay, BODIPY-GDP Exchange TR-FRET (SOS1-mediated nucleotide exchange); settings: read-out: KRas (G12D) GDP HTRF IC50
Method: Example 500: KRAS G12D LoEnz Biochemical Assay, BODIPY-GDP Exchange TR-FRET. Biochemical compound potencies are assessed by evaluating inhibition of SOS1I-mediated nucleotide exchange in KRAS G121D. In this assay, the SOS1-promoted exchange of fluorescently-labeled GDP (BOPIDY-GDP) is monitored by time-resolved fluorescence resonance energy transfer (TR-FRET). Compounds solubilized in DMS0 are dispensed as concentration series into 384-well white assay plates. A preformed complex of biotin-tagged recombinant human KRAS (0.06 nM mutant G1 2D) and 0.06 nM terbium-labeled streptavidin (CisBIO) prepared in 10 uL/well assay buffer (20 mM HEPES, pH 7.5, 50 mM NaCl, 10 mMMMgCl2, 0.0100 Tween-20 and 1 mM dithiothreitol) is added and allowed to incubate for 10-minutes at room temperature. The reaction is initiated with the addition of 5 uL 300 nM recombinant human SOS1 and 300 nM BODIPY-GDP in assay buffer. After a 120-minute incubation, the fluorescence is measured with excitation at 337 nm and emission at 490 and 520 nm. The TR-FRET ratio is determined as the fluorescence at 520 nm divided by the fluorescence at 490 nm multiplied by 10,000. The results are normalized to percent inhibition based on control samples: DMSO (0% inhibition) and control compound at a concentration that inhibits completely (100% inhibition). The normalized TR-FRET results are plotted against compound concentration, and the data are fit to a 4-parameter Hill equation to determine the IC50 values.

[2] = target: KRAS WT (Homo sapiens (Human), UniProt P01116); test: KRAS WT Biochemical Assay, BODIPY-GDP Exchange TR-FRET (Example 501; 3 nM KRAS WT, 3 nM SOS1, 60-minute incubation); settings: read-out: KRas(wt) GDP HTRF IC50
KRAS WT, sequence (P01116-2 other isoform, or with tags, fused parts or gaps): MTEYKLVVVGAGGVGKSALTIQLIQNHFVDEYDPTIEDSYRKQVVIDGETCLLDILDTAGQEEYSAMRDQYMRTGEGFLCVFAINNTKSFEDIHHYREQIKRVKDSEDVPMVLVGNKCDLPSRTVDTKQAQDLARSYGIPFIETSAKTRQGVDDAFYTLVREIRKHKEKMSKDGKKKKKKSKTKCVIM
Method: Example 501: KRAS WT Biochemical Assay, BODIPY-GDP Exchange TR-FRET. Biochemical compound potencies are assessed by evaluating inhibition of SOS1-mediated nucleotide exchange in KRAS WT. In this assay, the SOS1-promoted exchange of fluorescently-labeled GDP (BOPIDY-GDP) is monitored by time-resolved fluorescence resonance energy transfer (TR-FRET). Compounds solubilized in DMSO are dispensed as concentration series into 384-well white assay plates, and 5 uL assay buffer (20 mM HEPES, pH 7.5, 50 mM NaCl, 10 mM MgCl2, 0.01% Tween-20 and 1 mM dithiothreitol) is added just prior to the start of the assay. A preformed complex of 3 nM biotin-tagged recombinant human KRAS WT and 0.3 nM terbium-labeled streptavidin (CisBIO) prepared in 5 uL/well assay buffer is added and allowed to incubate for 10-minutes at room temperature. The reaction is initiated with the addition of 5 uL 3 nM recombinant human SOS1 and 300 nM BODIPY-GDP in assay buffer. After a 60-minute incubation, the fluorescence is measured with excitation at 337 nm and emission at 490 and 520 nm. The TR-FRET ratio is determined as the fluorescence at 520 nm divided by the fluorescence at 490 nm multiplied by 10,000. The results are normalized to percent inhibition based on control samples: DMSO (0% inhibition) and control compound at a concentration that inhibits completely (100% inhibition). The normalized TR-FRET results are plotted against compound concentration, and the data are fit to a 4-parameter Hill equation to determine the IC50 values.

KRAS G12D, sequence (P01116-2 other isoform, or with tags, fused parts or gaps G12D): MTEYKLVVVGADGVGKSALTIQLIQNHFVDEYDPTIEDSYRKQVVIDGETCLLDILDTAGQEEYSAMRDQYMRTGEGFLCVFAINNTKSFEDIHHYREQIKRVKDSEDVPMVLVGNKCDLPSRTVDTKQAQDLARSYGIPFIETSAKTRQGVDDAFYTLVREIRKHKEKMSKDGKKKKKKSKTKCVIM

Compound `Oc1cc(-c2nc3c4c(nc(OC[C@@]56CCCN5C[C@H](F)C6)nc4c2F)N2C[C@H]4CC[C@H](N4)[C@H]2CO3)c2c(F)cccc2c1` [Compound 1, 5-Fluoro-4-((5aS,6S,9R)-1-fluoro-12-(((2R,7aS)-2-fluorotetrahydro-1H-pyrrolizin-7a(5H)-yl)methoxy)-5a,6,7,8,9,10-hexahydro-5H-4-oxa-3,10a,11,13,14-pentaaza-6,9-methanonaphtho[1,8-ab]heptalen-2-yl)naphthalen-2-ol] has an IC50 [1] of 0.12 nM and an IC50 [2] of 8.12 nM.

For `Cn1ncc2ccc(F)c(-c3nc4c5c(nc(OC[C@@]67CCCN6C[C@H](F)C7)nc5c3F)N3C[C@H]5CC[C@H](N5)[C@H]3CO4)c21` [Compound 4, (5aS,6S,9R)-1-fluoro-2-(6-fluoro-1-methyl-1H-indazol-7-yl)-12-(((2R,7aS)-2-fluorotetrahydro-1H-pyrrolizin-7a(5H)-yl)methoxy)-5a,6,7,8,9,10-hexahydro-5H-4-oxa-3,10a,11,13,14-pentaaza-6,9-methanonaphtho[1,8-ab]heptalene], the IC50 [1] was 899 nM and the IC50 [2] was 9570 nM.

`CCc1cccc2cc(O)cc(-c3nc4c5c(nc(OC[C@@]67CCCN6C[C@H](F)C7)nc5c3F)N3C[C@H]5CC[C@H](N5)[C@H]3CO4)c12` [Compound 5, 5-ethyl-4-((5aS,6S,9R)-1-fluoro-12-(((2R,7aS)-2-fluorotetrahydro-1H-pyrrolizin-7a(5H)-yl)methoxy)-5a,6,7,8,9,10-hexahydro-5H-4-oxa-3,10a,11,13,14-pentaaza-6,9-methanonaphtho[1,8-ab]heptalen-2-yl)naphthalen-2-ol] showed an IC50 [1] of 0.06 nM and an IC50 [2] of 2.12 nM.

For `C[C@@H]1Oc2nc(-c3cccc4cccc(Cl)c34)c(F)c3nc(OC[C@@]45CCCN4C[C@H](F)C5)nc(c23)N2C[C@H]3CC[C@H](N3)[C@@H]12` [Compound 8, (5S,5aS,6S,9R)-2-(8-chloronaphthalen-1-yl)-1-fluoro-12-(((2R,7aS)-2-fluorotetrahydro-1H-pyrrolizin-7a(5H)-yl)methoxy)-5-methyl-5a,6,7,8,9,10-hexahydro-5H-4-oxa-3,10a,11,13,14-pentaaza-6,9-methanonaphtho[1,8-ab]heptalene], the IC50 [1] was 1.78 nM and the IC50 [2] was 146 nM.

Work on `C[C@@H]1Oc2nc(-c3cccc(N)c3F)c(F)c3nc(OC[C@@]45CCCN4C[C@H](F)C5)nc(c23)N2C[C@H]3CC[C@H](N3)[C@@H]12` [Compound 12, 2-fluoro-3-((5S,5aS,6S,9R)-1-fluoro-12-(((2R,7aS)-2-fluorotetrahydro-1H-pyrrolizin-7a(5H)-yl)methoxy)-5-methyl-5a,6,7,8,9,10-hexahydro-5H-4-oxa-3,10a,11,13,14-pentaaza-6,9-methanonaphtho[1,8-ab]heptalen-2-yl)aniline] yielded an IC50 [1] of 379 nM and an IC50 [2] of 37400 nM.

In the case of `C[C@@H]1Oc2nc(-c3cc(N)c(F)cc3C(F)(F)F)c(F)c3nc(OC[C@@]45CCCN4C[C@H](F)C5)nc(c23)N2C[C@H]3CC[C@H](N3)[C@@H]12` [Compound 14, 2-fluoro-5-((5S,5aS,6S,9R)-1-fluoro-12-(((2R,7aS)-2-fluorotetrahydro-1H-pyrrolizin-7a(5H)-yl)methoxy)-5-methyl-5a,6,7,8,9,10-hexahydro-5H-4-oxa-3,10a,11,13,14-pentaaza-6,9-methanonaphtho[1,8-ab]heptalen-2-yl)-4-(trifluoromethyl)aniline], the IC50 [1] is reported as 0.26 nM and the IC50 [2] is reported as 6.58 nM.

With `C[C@@H]1Oc2nc(-c3cc(N)c(F)c(F)c3C(F)(F)F)c(F)c3nc(OC[C@@]45CCCN4C[C@H](F)C5)nc(c23)N2C[C@H]3CC[C@H](N3)[C@@H]12` [Compound 15, 2,3-difluoro-5-((5S,5aS,6S,9R)-1-fluoro-12-(((2R,7aS)-2-fluorotetrahydro-1H-pyrrolizin-7a(5H)-yl)methoxy)-5-methyl-5a,6,7,8,9,10-hexahydro-5H-4-oxa-3,10a,11,13,14-pentaaza-6,9-methanonaphtho[1,8-ab]heptalen-2-yl)-4-(trifluoromethyl)aniline] the IC50 [1] was 0.07 nM and the IC50 [2] was 0.448 nM.

For `Cc1cc(-c2nc3c4c(nc(OC[C@@]56CCCN5C[C@H](F)C6)nc4c2F)N2C[C@H]4CC[C@H](N4)[C@H]2[C@H](C)O3)c(F)c(N)c1F` [Compound 18, 2,6-difluoro-3-((5S,5aS,6S,9R)-1-fluoro-12-(((2R,7aS)-2-fluorotetrahydro-1H-pyrrolizin-7a(5H)-yl)methoxy)-5-methyl-5a,6,7,8,9,10-hexahydro-5H-4-oxa-3,10a,11,13,14-pentaaza-6,9-methanonaphtho[1,8-ab]heptalen-2-yl)-5-methylaniline], the IC50 [1] was 175 nM and the IC50 [2] was 7850 nM.

Compound `Cc1c(F)c(N)cc(-c2nc3c4c(nc(OC[C@]56CCN5CC(F)(F)C6)nc4c2F)N2C[C@H]4CC[C@H](N4)[C@H]2[C@H](C)O3)c1C(F)(F)F` [Compound 24, 5-((5S,5aS,6S,9R)-12-(((R)-3,3-difluoro-1-azabicyclo[3.2.0]heptan-5-yl)methoxy)-1-fluoro-5-methyl-5a,6,7,8,9,10-hexahydro-5H-4-oxa-3,10a,11,13,14-pentaaza-6,9-methanonaphtho[1,8-ab]heptalen-2-yl)-2-fluoro-3-methyl-4-(trifuoromethyl)aniline] has an IC50 [1] of 0.29 nM and an IC50 [2] of 3.28 nM.

With `C[C@@H]1Oc2nc(-c3cc(O)cc4ccccc34)c(F)c3nc(OC[C@]45CCN4CC(F)(F)C5)nc(c23)N2C[C@H]3CC[C@H](N3)[C@@H]12` [Compound 25, 4-((5S,5aS,6S,9R)-12-(((R)-3,3-difluoro-1-azabicyclo[3.2.0]heptan-5-yl)methoxy)-1-fluoro-5-methyl-5a,6,7,8,9,10-hexahydro-5H-4-oxa-3,10a,11,13,14-pentaaza-6,9-methanonaphtho[1,8-ab]heptalen-2-yl)naphthalen-2-ol] the IC50 [1] was 2.04 nM and the IC50 [2] was 126 nM.

Work on `Cc1c(F)c(N)cc(-c2nc3c4c(nc(OC[C@@H]5C[C@@H](F)CN5C)nc4c2F)N2C[C@H]4CC[C@H](N4)[C@H]2[C@H](C)O3)c1C(F)(F)F` [Compound 26, 2-Fluoro-5-((5S,5aS,6S,9R)-1-fluoro-12-(((2S,4R)-4-fluoro-1-methylpyrrolidin-2-yl)methoxy)-5-methyl-5a,6,7,8,9,10-hexahydro-5H-4-oxa-3,10a,11,13,14-pentaaza-6,9-methanonaphtho[1,8-ab]heptalen-2-yl)-3-methyl-4-(trifluoromethyl)aniline] yielded an IC50 [1] of 0.26 nM and an IC50 [2] of 6.01 nM.

In the case of `C[C@@H]1Oc2nc(-c3cccc4cccc(Cl)c34)c(F)c3nc(OC[C@@]45CCCN4CC4(CC4(F)F)C5)nc(c23)N2C[C@H]3CC[C@H](N3)[C@@H]12` (stereo partly drawn) [Compound 27, (5S,5aS,6S,9R)-2-(8-chloronaphthalen-1-yl)-12-(((7a′S)-2,2-difluorodihydro-1′H,3′H-spiro[cyclopropane-1,2′-pyrrolizin]-7a′(5′H)-yl)methoxy)-1-fluoro-5-methyl-5a,6,7,8,9,10-hexahydro-5H-4-oxa-3,10a,11,13,14-pentaaza-6,9-methanonaphtho[1,8-ab]heptalene], the IC50 [1] is reported as 0.72 nM and the IC50 [2] is reported as 65.2 nM.

For `Cc1c(F)c(N)cc(-c2nc3c4c(nc(OCC56CCN5C[C@H](F)C6)nc4c2F)N2C[C@H]4CC[C@H](N4)[C@H]2[C@H](C)O3)c1C(F)(F)F` (stereo partly drawn) [Compound 29, 2-fluoro-5-((5S,5aS,6S,9R)-1-fluoro-12-(((3R)-3-fluoro-1-azabicyclo[3.2.0]heptan-5-yl)methoxy)-5-methyl-5a,6,7,8,9,10-hexahydro-5H-4-oxa-3,10a,11,13,14-pentaaza-6,9-methanonaphtho[1,8-ab]heptalen-2-yl)-3-methyl-4-(trifluoromethyl)aniline], the IC50 [1] was 0.086 nM and the IC50 [2] was 2.93 nM.
